From US20250127796A1, “METHODS OF TREATING CANCER WITH PI3K INHIBITOR, GDC-0077” (Genentech, Inc., priority 2018, published 2025)
Like-named read-outs stand apart in the source and are kept apart here.

Key:
[1] = system: PIK3CA-mutant breast cancer cell lines; assay: proliferation and apoptosis of PIK3CA-mutant breast cancer cell lines; assay type: cell-based; conditions: nonclinical studies
[2] = system: human breast xenograft models harboring PIK3CA mutations; assay: tumor growth in human breast xenograft models harboring PIK3CA mutations; assay type: in vivo; conditions: nonclinical studies
[3] = system: Class I PI3K beta, delta, and gamma isoforms; conditions: selectivity of alpha over beta; cited from earlier work
[4] = system: tumor cells bearing mutant PI3K; conditions: mutant versus WT PI3K cells; cited from earlier work
[5] = system: pAKT, pPRAS40, and pS6; assay: downstream PI3K-pathway markers; assay type: cell-based; conditions: nonclinical studies
[6] = in combination with fulvestrant; cited from earlier work
[7] = in combination with letrozole; cited from earlier work

Row | SMILES | proliferation and apoptosis of PIK3CA-mutant breast cancer cell lines [1] | tumor growth in human breast xenograft models harboring PIK3CA mutations [2] | less potent biochemical inhibition for other Class I PI3K beta, delta, and gamma isoforms (versus PI3K alpha) [3] | potency in mutant PI3K tumor cells over wild type (WT) PI3K cells [4] | downstream PI3K-pathway markers, including pAKT, pPRAS40, and pS6 [5] | patients who required ≥1 dose reduction of palbociclib [6] | patients who required ≥1 dose reduction of palbociclib [7]
1 | C[C@H](Nc1ccc2c(c1)OCCn1cc(N3C(=O)OC[C@H]3C(F)F)nc1-2)C(N)=O [GDC-0077, (S)-2-((2-((S)-4-(difluoromethyl)-2-oxooxazolidin-3-yl)-5,6-dihydrobenzo[f]imidazo[1,2-d][1,4]oxazepin-9-yl)amino)propanamide] | inhibits proliferation and induces apoptosis | inhibits tumor growth | > 300 fold | increased potency in tumor cells bearing mutant PI3K over wild type (WT) PI3K cells | reduces downstream PI3K-pathway markers |  | 
2 | CC(=O)c1c(C)c2cnc(Nc3ccc(N4CCNCC4)cn3)nc2n(C2CCCC2)c1=O [palbociclib, 6-acetyl-8-cyclopentyl-5-methyl-2-(5-(piperazin-1-yl)pyridin-2-ylamino)pyrido[2,3-d]pyrimidin-7(8H)-one] |  |  |  |  |  | 34% | 36%
